# Activity calls are given as the source filed them. The rule behind the calls is not given here.
# Tests used:
# [1] = Microsomal stability in minipig liver microsomes assessed as intrinsic clearance; format: ADME, Sus scrofa domesticus, Microsome; conditions: pig
# [2] = biological target: T1, Tyrosine-protein kinase JAK3 (Homo sapiens, UniProt P52333)
# T1 sequence (P52333 whole entry): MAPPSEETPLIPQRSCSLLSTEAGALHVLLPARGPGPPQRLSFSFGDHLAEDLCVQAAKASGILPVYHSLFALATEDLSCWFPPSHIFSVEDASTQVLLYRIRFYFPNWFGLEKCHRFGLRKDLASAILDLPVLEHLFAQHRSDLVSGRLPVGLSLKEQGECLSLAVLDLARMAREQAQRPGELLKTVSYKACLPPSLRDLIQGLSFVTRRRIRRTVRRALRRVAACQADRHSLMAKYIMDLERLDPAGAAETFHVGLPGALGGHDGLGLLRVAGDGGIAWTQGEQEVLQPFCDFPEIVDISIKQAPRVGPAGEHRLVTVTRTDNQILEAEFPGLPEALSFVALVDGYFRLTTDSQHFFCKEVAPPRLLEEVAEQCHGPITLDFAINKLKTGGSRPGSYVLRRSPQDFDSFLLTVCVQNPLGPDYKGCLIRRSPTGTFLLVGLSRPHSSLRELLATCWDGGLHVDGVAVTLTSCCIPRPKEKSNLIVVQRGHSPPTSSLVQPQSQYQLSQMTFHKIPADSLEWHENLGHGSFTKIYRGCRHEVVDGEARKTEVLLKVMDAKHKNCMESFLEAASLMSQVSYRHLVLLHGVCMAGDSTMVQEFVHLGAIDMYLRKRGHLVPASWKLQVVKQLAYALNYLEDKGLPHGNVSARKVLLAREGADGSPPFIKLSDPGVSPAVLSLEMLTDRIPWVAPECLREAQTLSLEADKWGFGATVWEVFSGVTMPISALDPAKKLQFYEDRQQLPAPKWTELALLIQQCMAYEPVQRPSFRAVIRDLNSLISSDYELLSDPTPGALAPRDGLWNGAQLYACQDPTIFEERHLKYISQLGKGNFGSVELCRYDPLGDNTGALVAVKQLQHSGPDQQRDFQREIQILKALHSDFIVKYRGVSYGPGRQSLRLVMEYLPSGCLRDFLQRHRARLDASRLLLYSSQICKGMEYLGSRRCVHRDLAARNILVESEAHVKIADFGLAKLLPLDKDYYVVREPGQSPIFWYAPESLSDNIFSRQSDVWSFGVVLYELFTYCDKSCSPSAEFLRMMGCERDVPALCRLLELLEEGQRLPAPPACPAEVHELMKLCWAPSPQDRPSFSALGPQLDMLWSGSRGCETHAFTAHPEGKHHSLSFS
# [3] = Drug uptake in topically administered human skin at 1 mm of depth by MALDI-IMS analysis; format: ADME, tissue-based, Skin of body; conditions: topical or ocular, route top, read-out: Drug uptake
# [4] = Drug concentration in topically administered human skin epidermis by MALDI-IMS analysis; format: ADME, tissue-based; conditions: topical_or_ocular, route top, read-out: Drug uptake
# [5] = Aqueous solubility of the compound at pH 6.8; format: physicochemical
# [6] = Plasma protein binding in human; format: ADME, cell-free; conditions: read-out: PPB
# [7] = Half life in minipig; format: ADME, Sus scrofa domesticus; conditions: pig, in vivo
# Homo sapiens [8] = test: Inhibition of IL4/IL13 stimulated TARC gene expression in human fresh skin epidermal explant Franz cell model administered topically to human skin epidermis preincubated with compound overnight followed by IL4/IL13 stimulation and measured after 24 hrs by qRT-PCR analysis; format: functional, tissue-based; conditions: Skin of body, route top, time 32.0 hrs
# [9] = biological target: Tyrosine-protein kinase JAK2 (Homo sapiens, UniProt O60674)
# [10] = biological target: Tyrosine-protein kinase JAK1 (Homo sapiens, UniProt P23458)
# [11] = Drug uptake in topically administered human skin at 0.5 mm of depth by MALDI-IMS analysis; format: ADME, tissue-based, Skin of body; conditions: topical or ocular, route top, read-out: Drug uptake
# [12] = biological target: Mitogen-activated protein kinase kinase kinase kinase 4 (Homo sapiens, UniProt O95819); test: Inhibition of MAP4K4 (unknown origin) by caliper microfluidic mobility shift technology
# [13] = biological target: T2, Janus Kinase (JAK) (Homo sapiens) (UniProt P52333+P23458+O60674+P29597); test: Inhibition of JAK in human skin assessed as reduction in TARC release at 10 uM incubated for 24 hrs in the presence of IL4/IL13 by MSD analysis relative to control; format: tissue-based; conditions: Skin of body
# [14] = biological target: T2, Janus Kinase (JAK) (Homo sapiens); test: Inhibition of JAK in human skin assessed as reduction in TARC release at 1 uM incubated for 24 hrs in the presence of IL4/IL13 by MSD analysis relative to control; format: tissue-based; conditions: Skin of body
# in vitro = conditions: human, liver microsomes
# Description: Microsomal stability in human liver microsomes assessed as intrinsic clearance
# [15] = Lipophilicity, log D of the compound; format: physicochemical; conditions: octanol/water
# JAK3/JAK1 [16] = biological target: T3, JAK3/JAK1 (Homo sapiens, UniProt P23458+P52333); format: tissue-based, Blood
# Description: Inhibition of JAK1/JAK3 in human blood assessed as reduction of IL-2 stimulated STAT phosphorylation preincubated for 30 mins followed by IL-2 stimulation and measured after 15 mins by flow cytometry method
# [17] = Microsomal stability in rat liver microsomes assessed as intrinsic clearance; format: ADME, Microsome
# Homo sapiens [18] = test: Inhibition of IL4/IL13 stimulated Eotaxin 3 gene expression in human fresh skin epidermal explant Franz cell model administered topically to human skin epidermis preincubated with compound overnight followed by IL4/IL13 stimulation and measured after 24 hrs by qRT-PCR analysis; format: functional, tissue-based; conditions: Skin of body, route top, time 32.0 hrs
# [19] = Half life in rat; format: ADME; conditions: in vivo
# [20] = Drug exposure in topically dosed minipig and measured for 14 days; format: ADME, organism-based, Sus scrofa domesticus; conditions: pig, in vivo, topical_or_ocular, 336 h; route top, time 14 day
# [21] = Drug excretion in iv dosed bile duct cannulated rat bile assessed as unchanged drug; format: ADME, organism-based; conditions: read-out: Drug excretion
# [22] = Metabolic stability in human hepatocytes assessed as intrinsic clearance; format: ADME, cell-based, Hepatocyte
# [23] = Drug excretion in iv dosed bile duct cannulated rat urine assessed as unchanged drug; format: ADME, organism-based; conditions: read-out: Drug excretion
# [24] = biological target: T4, Signal transducer and activator of transcription 6 (Homo sapiens) (UniProt P42226); test: Inhibition of IL4/IL13 induced STAT6 phosphorylation in topically administered human skin assessed as reduction in phosphorylated STAT6 level preincubated with compound overnight followed by IL4/1L13 stimulation and measured after 3 hrs by Western blot analysis; format: tissue-based; conditions: Skin of body, route top, time 11.0 hrs
# T4 sequence (whole entry): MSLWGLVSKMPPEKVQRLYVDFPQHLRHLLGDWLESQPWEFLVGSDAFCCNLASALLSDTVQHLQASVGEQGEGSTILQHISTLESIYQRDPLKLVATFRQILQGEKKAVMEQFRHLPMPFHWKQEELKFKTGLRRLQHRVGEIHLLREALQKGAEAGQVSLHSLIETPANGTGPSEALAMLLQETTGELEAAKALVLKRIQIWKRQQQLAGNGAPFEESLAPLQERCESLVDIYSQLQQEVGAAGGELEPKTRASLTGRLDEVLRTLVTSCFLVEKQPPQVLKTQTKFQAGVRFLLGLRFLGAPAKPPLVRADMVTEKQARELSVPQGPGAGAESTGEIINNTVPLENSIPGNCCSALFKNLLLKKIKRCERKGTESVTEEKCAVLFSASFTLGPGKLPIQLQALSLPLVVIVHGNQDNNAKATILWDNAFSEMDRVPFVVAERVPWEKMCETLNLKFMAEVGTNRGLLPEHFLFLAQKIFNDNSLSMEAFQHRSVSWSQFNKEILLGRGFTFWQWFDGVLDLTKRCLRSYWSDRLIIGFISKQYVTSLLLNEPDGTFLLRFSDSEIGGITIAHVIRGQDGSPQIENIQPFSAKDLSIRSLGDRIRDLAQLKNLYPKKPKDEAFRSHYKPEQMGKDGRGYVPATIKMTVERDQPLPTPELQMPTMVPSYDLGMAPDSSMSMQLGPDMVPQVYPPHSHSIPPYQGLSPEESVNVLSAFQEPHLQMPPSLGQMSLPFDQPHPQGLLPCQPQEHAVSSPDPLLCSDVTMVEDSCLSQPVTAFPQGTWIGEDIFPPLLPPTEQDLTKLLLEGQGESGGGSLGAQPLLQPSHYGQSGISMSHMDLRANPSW
# JAK3/JAK1 [25] = biological target: T3, JAK3/JAK1; format: cell-based, M07E
# Description: Inhibition of JAK1/JAK3 in human M07E cells assessed as reduction of IL-15 stimulated STAT phosphorylation preincubated for 30 mins followed by IL-15 stimulation and measured after 15 mins by flow cytometry analysis
# [26] = Clearance in minipig; format: ADME, Sus scrofa domesticus; conditions: pig, in vivo
# [27] = Metabolic stability in minipig hepatocytes assessed as intrinsic clearance; format: ADME, cell-based, Sus scrofa domesticus, Hepatocyte; conditions: pig
# JAK1/TYK2 = JAK1/TYK2 (Homo sapiens, UniProt P23458+P29597); format: cell-based, M07E
# Description: Inhibition of JAK1/TYK2 in human M07E cells assessed as reduction of IFN alpha stimulated STAT phosphorylation preincubated for 30 mins followed by IFN alpha stimulation and measured after 15 mins by flow cytometry method
# Homo sapiens [28] = test: Inhibition of IL4/IL13 stimulated MMP12 gene expression in human fresh skin epidermal explant Franz cell model administered topically to human skin epidermis preincubated with compound overnight followed by IL4/IL13 stimulation and measured after 24 hrs by qRT-PCR analysis; format: functional, tissue-based; conditions: Skin of body, route top, time 32.0 hrs
# [29] = biological target: Glycogen synthase kinase-3 beta (Homo sapiens, UniProt P49841); test: Inhibition of GSK3B (unknown origin) by caliper microfluidic mobility shift technology
# [30] = Clearance in rat; format: ADME; conditions: in vivo
# Homo sapiens [31] = test: Inhibition of IL4/IL13 induced MMP12 gene expression in topically administered human skin preincubated with compound overnight followed by IL4/IL13 stimulation and measured after 3 hrs by qRT-PCR analysis; format: functional, tissue-based; conditions: Skin of body, route top, time 11.0 hrs
# [32] = […] in mouse 3T3 cells by neutral red uptake assay; format: toxicity, cell-based; conditions: nih3t3
# [33] = biological target: Non-receptor tyrosine-protein kinase TYK2 (Homo sapiens, UniProt P29597)
# Description: Inhibition of TYK2 (unknown origin) by caliper technology
# [34] = Metabolic stability in rat hepatocytes assessed as intrinsic clearance; format: ADME, cell-based, Hepatocyte
# Chain of Tyrosine-protein kinase JAK1 (P23458 whole entry): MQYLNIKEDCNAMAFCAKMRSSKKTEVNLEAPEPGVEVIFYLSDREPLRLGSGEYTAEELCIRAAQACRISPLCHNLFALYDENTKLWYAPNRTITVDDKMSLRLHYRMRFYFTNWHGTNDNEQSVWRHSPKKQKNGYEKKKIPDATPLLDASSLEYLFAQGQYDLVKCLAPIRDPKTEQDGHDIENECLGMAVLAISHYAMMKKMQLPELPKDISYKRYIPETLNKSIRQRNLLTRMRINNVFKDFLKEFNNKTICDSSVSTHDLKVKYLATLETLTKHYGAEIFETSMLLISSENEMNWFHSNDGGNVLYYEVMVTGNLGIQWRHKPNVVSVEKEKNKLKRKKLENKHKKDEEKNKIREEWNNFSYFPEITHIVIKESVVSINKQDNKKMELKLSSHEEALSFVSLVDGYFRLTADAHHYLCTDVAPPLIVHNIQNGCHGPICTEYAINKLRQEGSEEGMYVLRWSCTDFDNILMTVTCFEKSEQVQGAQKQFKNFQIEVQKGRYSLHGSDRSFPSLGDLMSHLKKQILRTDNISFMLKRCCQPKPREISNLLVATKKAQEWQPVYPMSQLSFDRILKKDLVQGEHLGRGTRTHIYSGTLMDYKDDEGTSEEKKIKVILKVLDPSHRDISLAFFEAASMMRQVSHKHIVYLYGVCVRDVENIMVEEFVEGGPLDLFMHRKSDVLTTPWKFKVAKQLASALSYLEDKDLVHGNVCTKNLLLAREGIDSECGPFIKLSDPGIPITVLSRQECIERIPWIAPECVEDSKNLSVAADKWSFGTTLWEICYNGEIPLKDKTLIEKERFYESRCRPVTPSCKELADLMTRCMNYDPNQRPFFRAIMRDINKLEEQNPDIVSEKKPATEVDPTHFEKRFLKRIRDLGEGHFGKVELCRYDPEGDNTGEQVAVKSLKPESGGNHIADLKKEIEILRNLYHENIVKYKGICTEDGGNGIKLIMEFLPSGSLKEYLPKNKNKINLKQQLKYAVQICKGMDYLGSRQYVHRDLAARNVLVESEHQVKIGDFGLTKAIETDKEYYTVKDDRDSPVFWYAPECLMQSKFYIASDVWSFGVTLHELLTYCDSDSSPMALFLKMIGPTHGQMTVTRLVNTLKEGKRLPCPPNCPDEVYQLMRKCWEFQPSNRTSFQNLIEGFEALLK
# Chain of JAK1/TYK2 (P23458 whole entry): as above
# Chain of JAK1/TYK2 (P29597 whole entry): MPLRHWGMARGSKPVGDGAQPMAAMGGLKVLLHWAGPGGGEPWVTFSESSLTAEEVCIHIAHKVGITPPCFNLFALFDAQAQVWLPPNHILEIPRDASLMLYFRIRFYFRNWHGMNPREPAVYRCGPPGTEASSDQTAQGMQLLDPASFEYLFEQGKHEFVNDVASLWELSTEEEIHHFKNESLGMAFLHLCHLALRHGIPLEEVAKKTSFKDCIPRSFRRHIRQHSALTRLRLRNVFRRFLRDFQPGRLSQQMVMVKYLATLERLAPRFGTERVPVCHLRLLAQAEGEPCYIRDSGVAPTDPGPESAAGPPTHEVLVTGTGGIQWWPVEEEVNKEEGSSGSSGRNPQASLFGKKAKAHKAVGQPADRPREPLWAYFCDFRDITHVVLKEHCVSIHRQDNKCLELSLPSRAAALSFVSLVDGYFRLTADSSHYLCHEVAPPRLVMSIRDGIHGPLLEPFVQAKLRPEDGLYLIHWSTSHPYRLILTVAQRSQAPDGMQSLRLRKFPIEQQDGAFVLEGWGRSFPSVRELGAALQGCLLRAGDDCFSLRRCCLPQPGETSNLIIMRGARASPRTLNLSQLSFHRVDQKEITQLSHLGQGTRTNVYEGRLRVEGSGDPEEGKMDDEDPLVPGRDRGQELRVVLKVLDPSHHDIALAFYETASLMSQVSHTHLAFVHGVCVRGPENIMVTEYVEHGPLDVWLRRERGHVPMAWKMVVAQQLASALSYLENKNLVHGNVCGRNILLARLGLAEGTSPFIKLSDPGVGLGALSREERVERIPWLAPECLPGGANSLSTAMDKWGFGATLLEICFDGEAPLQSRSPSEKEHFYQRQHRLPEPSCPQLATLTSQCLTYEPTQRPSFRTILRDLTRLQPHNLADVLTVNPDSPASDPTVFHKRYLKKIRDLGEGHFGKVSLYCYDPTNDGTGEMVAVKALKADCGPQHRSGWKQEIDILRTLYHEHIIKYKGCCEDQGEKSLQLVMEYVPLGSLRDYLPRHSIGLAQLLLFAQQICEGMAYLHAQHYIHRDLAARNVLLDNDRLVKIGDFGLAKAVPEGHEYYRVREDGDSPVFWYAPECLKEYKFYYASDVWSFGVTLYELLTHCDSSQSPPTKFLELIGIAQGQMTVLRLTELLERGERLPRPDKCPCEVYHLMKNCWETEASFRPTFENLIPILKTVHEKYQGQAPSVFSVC
# T3 sequence (P23458 whole entry, one chain of several): as the sequence (P23458 whole entry) above
# Chain of Tyrosine-protein kinase JAK2 (O60674 whole entry): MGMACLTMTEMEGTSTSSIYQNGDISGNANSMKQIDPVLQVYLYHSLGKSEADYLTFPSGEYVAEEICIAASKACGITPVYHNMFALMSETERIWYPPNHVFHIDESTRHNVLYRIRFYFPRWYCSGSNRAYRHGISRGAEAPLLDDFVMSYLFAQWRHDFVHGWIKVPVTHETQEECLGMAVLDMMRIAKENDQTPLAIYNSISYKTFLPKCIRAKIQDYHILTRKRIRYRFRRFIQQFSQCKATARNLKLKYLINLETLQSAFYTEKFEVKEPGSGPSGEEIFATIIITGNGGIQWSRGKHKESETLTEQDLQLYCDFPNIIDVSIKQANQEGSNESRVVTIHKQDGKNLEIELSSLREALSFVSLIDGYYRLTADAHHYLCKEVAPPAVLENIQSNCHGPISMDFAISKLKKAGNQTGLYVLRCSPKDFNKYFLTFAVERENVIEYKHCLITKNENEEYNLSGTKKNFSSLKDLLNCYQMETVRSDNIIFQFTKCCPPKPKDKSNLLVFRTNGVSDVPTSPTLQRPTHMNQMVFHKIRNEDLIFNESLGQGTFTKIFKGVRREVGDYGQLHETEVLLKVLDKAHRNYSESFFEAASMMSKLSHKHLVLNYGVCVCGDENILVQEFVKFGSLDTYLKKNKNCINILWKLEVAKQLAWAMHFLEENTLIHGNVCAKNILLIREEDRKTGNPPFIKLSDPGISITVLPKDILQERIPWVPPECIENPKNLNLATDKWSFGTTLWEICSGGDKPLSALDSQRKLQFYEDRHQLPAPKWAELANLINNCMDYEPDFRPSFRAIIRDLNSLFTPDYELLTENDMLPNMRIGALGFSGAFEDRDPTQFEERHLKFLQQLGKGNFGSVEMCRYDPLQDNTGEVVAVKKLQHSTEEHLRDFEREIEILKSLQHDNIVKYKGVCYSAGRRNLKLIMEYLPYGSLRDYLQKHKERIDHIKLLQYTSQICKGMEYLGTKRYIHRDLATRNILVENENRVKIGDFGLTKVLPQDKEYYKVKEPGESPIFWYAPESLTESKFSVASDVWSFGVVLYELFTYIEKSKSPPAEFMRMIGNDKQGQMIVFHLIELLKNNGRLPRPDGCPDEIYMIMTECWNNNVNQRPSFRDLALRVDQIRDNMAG
# Chain of Non-receptor tyrosine-protein kinase TYK2 (P29597 whole entry): as the sequence (P29597 whole entry) above
# T2 sequence (O60674 whole entry, looked up, one chain of several): as the sequence (O60674 whole entry) above
# T2 sequence (P23458 whole entry, looked up, one chain of several): as the sequence (P23458 whole entry) above
# T2 sequence (P29597 whole entry, looked up, one chain of several): as the sequence (P29597 whole entry) above
# Chain of Mitogen-activated protein kinase kinase kinase kinase 4 (O95819 whole entry): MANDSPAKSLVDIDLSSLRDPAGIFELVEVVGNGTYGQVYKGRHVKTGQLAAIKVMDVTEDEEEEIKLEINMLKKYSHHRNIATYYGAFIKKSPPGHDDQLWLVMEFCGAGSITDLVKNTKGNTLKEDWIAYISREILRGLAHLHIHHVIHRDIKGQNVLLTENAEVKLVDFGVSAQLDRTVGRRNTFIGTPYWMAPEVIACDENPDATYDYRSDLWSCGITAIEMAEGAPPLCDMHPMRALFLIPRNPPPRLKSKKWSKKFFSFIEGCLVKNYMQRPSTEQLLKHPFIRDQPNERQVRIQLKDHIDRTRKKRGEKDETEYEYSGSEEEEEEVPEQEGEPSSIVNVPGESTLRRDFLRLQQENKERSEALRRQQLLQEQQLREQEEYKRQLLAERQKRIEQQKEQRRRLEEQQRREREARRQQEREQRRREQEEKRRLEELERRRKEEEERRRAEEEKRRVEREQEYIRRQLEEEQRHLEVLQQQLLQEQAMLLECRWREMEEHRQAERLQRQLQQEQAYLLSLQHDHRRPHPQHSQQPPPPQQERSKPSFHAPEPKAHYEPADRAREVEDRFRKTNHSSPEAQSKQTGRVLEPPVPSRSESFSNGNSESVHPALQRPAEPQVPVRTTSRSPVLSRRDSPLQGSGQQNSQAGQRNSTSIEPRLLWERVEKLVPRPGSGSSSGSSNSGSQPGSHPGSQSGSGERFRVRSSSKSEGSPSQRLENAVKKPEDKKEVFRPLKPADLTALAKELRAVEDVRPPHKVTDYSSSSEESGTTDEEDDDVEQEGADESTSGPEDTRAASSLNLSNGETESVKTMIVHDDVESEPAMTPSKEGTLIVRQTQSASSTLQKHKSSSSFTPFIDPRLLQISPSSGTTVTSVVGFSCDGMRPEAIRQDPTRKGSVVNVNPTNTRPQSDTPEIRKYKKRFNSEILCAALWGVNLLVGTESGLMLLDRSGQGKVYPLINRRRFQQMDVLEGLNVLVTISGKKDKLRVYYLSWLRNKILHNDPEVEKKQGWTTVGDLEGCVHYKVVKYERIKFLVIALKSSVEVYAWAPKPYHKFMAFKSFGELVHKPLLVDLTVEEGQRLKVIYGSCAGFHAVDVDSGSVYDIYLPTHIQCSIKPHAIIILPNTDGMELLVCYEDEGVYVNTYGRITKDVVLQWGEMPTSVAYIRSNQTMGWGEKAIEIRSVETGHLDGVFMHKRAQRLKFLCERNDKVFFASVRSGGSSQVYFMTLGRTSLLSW
compound,measurement,setting,value
Cc1cccc(Nc2cc(Nc3ccccc3Cl)c(C(N)=O)cn2)n1,CLH,[1],67 mL·min/g
same,IC50,[2],59 nM
same,concentration at 1000 µM,[3],1.68 µM
same,concentration,[4],13 µM
same,solubility,[5],0.2 µM
same,fraction unbound,[6],< 0.01
same,half-life,[7],60 min
same,inhibition,Homo sapiens [8],Active
same,IC50,[9],48 nM
same,IC50,[10],50 nM
same,concentration at 500 µM,[11],3.51 µM
same,IC50,[12],110 nM
same,inhibition,[13],100%
same,inhibition,[14],74%
same,microsomal CLint,in vitro,166 µL/min/mg
same,logD,[15],4.3
same,IC50,JAK3/JAK1 [16],2350 nM
same,CLH,[17],204 mL·min/g
same,inhibition,Homo sapiens [18],Active
same,half-life,[19],30 min
same,Drug uptake,[20],< 1 nM
same,dose excreted,[21],< 1%
same,CLH,[22],47 mL·min/g
same,dose excreted,[23],1.3%
same,inhibition,[24],Active
same,IC50,JAK3/JAK1 [25],54 nM
same,CL,[26],52 mL/min/g
same,CLH,[27],38 mL·min/g
same,IC50,JAK1/TYK2,85 nM
same,inhibition,Homo sapiens [28],Active
same,IC50,[29],380 nM
same,clearance,[30],82 mL/min/kg
same,inhibition,Homo sapiens [31],Active
same,Activity,[32],Non-Toxic
same,IC50,[33],50 nM
same,CLH,[34],94 mL·min/g
COc1ccccc1Nc1cc(Nc2cccc(C)n2)ncc1C(N)=O,IC50,[2],18 nM
same,IC50,[9],14 nM
same,IC50,[10],14 nM
same,microsomal CLint,in vitro,179 µL/min/mg
same,logD,[15],3.7
same,IC50,JAK3/JAK1 [16],994 nM
same,IC50,JAK3/JAK1 [25],85 nM
same,IC50,JAK1/TYK2,33 nM
same,IC50,[33],15 nM
CC[C@@H]1CN(C(=O)NCC(F)(F)F)C[C@@H]1c1cnc2cnc3[nH]ccc3n12 [UPADACITINIB],microsomal CLint,in vitro,< 25 µL/min/mg
COc1ccccc1Nc1cc(Nc2cccnn2)ncc1C(N)=O,IC50,[2],39 nM
same,IC50,[9],29 nM
same,IC50,[10],29 nM
same,microsomal CLint,in vitro,127 µL/min/mg
same,logD,[15],2.4
same,IC50,JAK3/JAK1 [16],486 nM
same,IC50,JAK3/JAK1 [25],66 nM
same,IC50,JAK1/TYK2,51 nM
same,IC50,[33],19 nM
COc1ccccc1Nc1cc(Nc2ccccn2)ncc1C(N)=O,IC50,[2],11 nM
same,IC50,[9],8 nM
same,IC50,[10],9 nM
same,microsomal CLint,in vitro,210 µL/min/mg
same,logD,[15],3.4
same,IC50,JAK3/JAK1 [16],340 nM
same,IC50,JAK3/JAK1 [25],45 nM
same,IC50,JAK1/TYK2,31 nM
same,IC50,[33],6 nM
C[C@H]1CN(C(=O)CC#N)[C@]12CCN(c1ncnc3[nH]ccc13)C2 [DELGOCITINIB],microsomal CLint,in vitro,< 25 µL/min/mg
Cn1cc(Nc2nccc(N3CC4CCC(C3)N4C(=O)[C@@H]3CC3(F)F)n2)cn1,microsomal CLint,in vitro,< 25 µL/min/mg
N#CC[C@H](C1CCCC1)n1cc(-c2ncnc3[nH]ccc23)cn1 [RUXOLITINIB],microsomal CLint,in vitro,40 µL/min/mg
NC(=O)c1cnc(Nc2ccccn2)cc1Nc1ccccc1Cl,IC50,[2],10 nM
same,fraction unbound,[6],< 0.01
same,IC50,[9],27 nM
same,IC50,[10],22 nM
same,microsomal CLint,in vitro,227 µL/min/mg
same,logD,[15],3.7
same,IC50,JAK3/JAK1 [16],564 nM
same,IC50,JAK3/JAK1 [25],41 nM
same,IC50,JAK1/TYK2,84 nM
same,IC50,[33],11 nM
CCS(=O)(=O)N1CC(CC#N)(n2cc(-c3ncnc4[nH]ccc34)cn2)C1 [BARICITINIB],microsomal CLint,in vitro,< 25 µL/min/mg

# From ChEMBL document CHEMBL5316322, “Discovery and Characterization of the Topical Soft JAK Inhibitor CEE321 for Atopic Dermatitis” (J Med Chem, 2023)
